According to PubChem BioAssay (NCI):
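Five compound concentrations were applied to cells in 96-well plates for 48 hours; endpoints were derived by simple linear interpolation of the resulting dose-response curve. At the GI50, growth is halved. TGI: concentration producing complete growth inhibition.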

What was measured:
Experiment in all cases: NCI tumour cell line growth inhibition, 48 h; in the data active = GI50 below about 0.43 µM; inactive = the rest
[1] = test system: COLO 205 colon
[2] = test system: SNB-75 CNS
[3] = test system: NCI/ADR-RES ovarian
[4] = test system: HS 578T breast
[5] = test system: SNB-19 CNS
[6] = test system: K-562 leukemia
[7] = test system: U251 CNS
[8] = test system: A549 NSCLC
[9] = test system: OVCAR-8 ovarian
[10] = test system: RXF 393 renal
[11] = test system: SN12C renal
[12] = test system: LOX IMVI melanoma
[13] = test system: NCI-H23 lung
[14] = test system: HT29 colon
[15] = test system: NCI-H226 lung
[16] = test system: OVCAR-5 ovarian
[17] = test system: HL-60(TB) leukemia
[18] = test system: OVCAR-4 ovarian
[19] = test system: MDA-MB-231 breast
[20] = test system: CAKI-1 renal
[21] = test system: TK-10 renal
[22] = test system: M14 melanoma
[23] = test system: BT-549 breast
[24] = test system: 786-0 renal
[25] = test system: SK-MEL-2 melanoma
[26] = test system: HOP-92 NSCLC
[27] = test system: SK-MEL-5 melanoma
[28] = test system: UACC-62 melanoma
[29] = test system: RPMI-8226 leukemia
[30] = test system: SK-MEL-28 melanoma
[31] = test system: SW-620 colon
[32] = test system: HOP-62 NSCLC
[33] = test system: IGROV1 ovarian
[34] = test system: UO-31 renal
[35] = test system: MALME-3M melanoma
[36] = test system: KM12 colon
[37] = test system: NCI-H460 lung
[38] = test system: SF-539 CNS
[39] = test system: SR leukemia
[40] = test system: SK-OV-3 ovarian
[41] = test system: OVCAR-3 ovarian
[42] = test system: SF-268 CNS
[43] = test system: ACHN renal
[44] = test system: PC-3 prostate
[45] = test system: DU-145 prostate
[46] = test system: MDA-MB-435
[47] = test system: SF-295 CNS
[48] = test system: NCI-H522 lung
[49] = test system: T-47D breast
[50] = test system: EKVX NSCLC
[51] = test system: HCT-15 colon
[52] = test system: CCRF-CEM leukemia
[53] = test system: MOLT-4 leukemia

COc1ccc(C(=S)N(C)NC(=O)CC(=O)NN(C)C(=S)c2ccc(OC)cc2)cc1
active: GI50 [26] 0.283 µM | GI50 [29] 0.0119 µM
39 µM: TGI [47]
> 100 µM: TGI [2] | TGI [3] | TGI [5] | TGI [6] | TGI [7] | TGI [8] | TGI [9] | TGI [11] | TGI [12] | TGI [13] | TGI [14] | TGI [15] | TGI [16] | TGI [17] | TGI [18] | TGI [19] | TGI [20] | TGI [21] | TGI [22] | TGI [23] | TGI [24] | TGI [25] | TGI [26] | TGI [27] | TGI [28] | TGI [29] | TGI [30] | TGI [31] | TGI [32] | TGI [33] | TGI [34] | TGI [35] | TGI [36] | TGI [37] | TGI [38] | TGI [39] | TGI [40] | TGI [41] | TGI [42] | TGI [43] | TGI [44] | TGI [45] | TGI [46] | TGI [48] | TGI [49] | TGI [50] | TGI [51] | TGI [52] | TGI [53]
82.6 µM: TGI [4]
92.3 µM: TGI [10]
inactive: GI50 [1] 12.8 µM | GI50 [2] > 100 µM | GI50 [3] 29.1 µM | GI50 [4] 24.4 µM | GI50 [5] > 100 µM | GI50 [6] 59.4 µM | GI50 [7] 45.8 µM | GI50 [8] 24.5 µM | GI50 [9] 38.9 µM | GI50 [10] 40.4 µM | GI50 [11] 98 µM | GI50 [12] 28.9 µM | GI50 [13] 46.6 µM | GI50 [14] 39.1 µM | GI50 [15] 49.8 µM | GI50 [16] 76.3 µM | GI50 [17] > 100 µM | GI50 [18] 31.7 µM | GI50 [19] > 100 µM | GI50 [20] 31.8 µM | GI50 [21] 67 µM | GI50 [22] 33.5 µM | GI50 [23] 50.3 µM | GI50 [24] 58.5 µM | GI50 [25] 79.6 µM | GI50 [27] 36.2 µM | GI50 [28] 37 µM | GI50 [30] 42.6 µM | GI50 [31] 33.3 µM | GI50 [32] > 100 µM | GI50 [33] 54.4 µM | GI50 [34] 24.9 µM | GI50 [35] 52.3 µM | GI50 [36] 62.7 µM | GI50 [37] 18.1 µM | GI50 [38] 51.9 µM | GI50 [39] > 100 µM | GI50 [40] > 100 µM | GI50 [41] 36.5 µM | GI50 [42] 43.2 µM | GI50 [43] 50.7 µM | GI50 [44] 26.1 µM | GI50 [45] 46.9 µM | GI50 [46] 59.9 µM | GI50 [47] 1.63 µM | GI50 [48] 45.9 µM | GI50 [49] 58.6 µM | GI50 [50] 32 µM | GI50 [51] 17.6 µM | GI50 [52] 23.4 µM | GI50 [53] > 100 µM
70.8 µM: TGI [1]
